# According to PubChem BioAssay AID180 (DTP/NCI, 2004):
# System: BDF1 mice, Adenocarcinoma 755 s.c., tumor weight T/C
# Assay: NCI In Vivo Anticancer Drug Screen. Data for tumor model Adenocarcinoma 755 (subcutaneous) in B6D2F1 (BDF1) mice
# Details: endpoint: mean tumor weight, higher = larger tumour
# Outline: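 Compound activity was tested in mice carrying transplanted tumors. Survival or tumor size was measured, and each value is the treated-group measurement divided by that of the vehicle-treated control group (T/C).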
# [1] = dose: 6.25 mg/kg/injection, schedule: Q01DX011 (ip), vehicle: methylcellulose (MC)
# [2] = dose: 60.0 mg/kg/injection, schedule: Q01DX011 (ip), vehicle: carboxymethylcellulose (CMC)
# [3] = dose: 75.0 mg/kg/injection, schedule: Q01DX011 (ip), vehicle: methylcellulose (MC)
smiles,measurement,setting,value
CS(=O)(=O)OCC(O)C(O)COS(C)(=O)=O (stereo unspecified),T/C,"dose: 125.0 mg/kg/injection, schedule: Q01DX011 (ip), vehicle: carboxymethylcellulose (CMC)",65 % of control
same,T/C,"dose: 200.0 mg/kg/injection, schedule: Q01DX011 (ip), vehicle: saline",66 % of control
same,T/C,"dose: 250.0 mg/kg/injection, schedule: Q01DX011 (ip), vehicle: carboxymethylcellulose (CMC)",20 % of control
same,T/C,"dose: 500.0 mg/kg/injection, schedule: Q01DX011 (ip), vehicle: carboxymethylcellulose (CMC)",6 % of control
same,T/C,"dose: 800.0 mg/kg/injection, schedule: Q01DX011 (ip), vehicle: saline",17 % of control
Cn1cnc([N+](=O)[O-])c1Sc1nc(N)nc2nc[nH]c12,T/C,"dose: 0.04 mg/kg/injection, schedule: Q01DX011 (ip), vehicle: alkali diluted with saline",76 % of control
same,T/C,"dose: 0.07 mg/kg/injection, schedule: Q01DX011 (ip), vehicle: methylcellulose (MC)",84 % of control
same,T/C,"dose: 0.08 mg/kg/injection, schedule: Q01DX011 (ip), vehicle: alkali diluted with saline",72 % of control
same,T/C,"dose: 0.13 mg/kg/injection, schedule: Q01DX011 (ip), vehicle: methylcellulose (MC)",86 % of control
same,T/C,"dose: 0.16 mg/kg/injection, schedule: Q01DX011 (ip), vehicle: alkali diluted with saline",102 % of control
same,T/C,"dose: 0.2 mg/kg/injection, schedule: Q01DX011 (ip), vehicle: methylcellulose (MC)",30 % of control
same,T/C,"dose: 0.25 mg/kg/injection, schedule: Q01DX011 (ip), vehicle: distilled water + alcohol",29 % of control
same,T/C,"dose: 0.25 mg/kg/injection, schedule: Q01DX011 (ip), vehicle: methylcellulose (MC)",65 % of control
same,T/C,"dose: 0.32 mg/kg/injection, schedule: Q01DX011 (ip), vehicle: alkali diluted with saline",82 % of control
same,T/C,"dose: 0.32 mg/kg/injection, schedule: Q01DX011 (ip), vehicle: saline",102 % of control
same,T/C,"dose: 0.39 mg/kg/injection, schedule: Q01DX011 (ip), vehicle: methylcellulose (MC)",8 % of control
same,T/C,"dose: 0.52 mg/kg/injection, schedule: Q01DX011 (ip), vehicle: distilled water + alcohol",18 % of control
same,T/C,"dose: 0.62 mg/kg/injection, schedule: Q01DX011 (oral), vehicle: saline",89 % of control
same,T/C,"dose: 0.63 mg/kg/injection, schedule: Q01DX011 (ip), vehicle: alkali diluted with saline",41 % of control
same,T/C,"dose: 0.63 mg/kg/injection, schedule: Q01DX011 (ip), vehicle: saline",46 % of control
same,T/C,"dose: 0.78 mg/kg/injection, schedule: Q01DX011 (ip), vehicle: methylcellulose (MC)",7 % of control
same,T/C,"dose: 1.0 mg/kg/injection, schedule: Q01DX011 (ip), vehicle: methylcellulose (MC)",27 % of control
same,T/C,"dose: 1.05 mg/kg/injection, schedule: Q01DX011 (ip), vehicle: distilled water + alcohol",5 % of control
same,T/C,"dose: 1.25 mg/kg/injection, schedule: Q01DX011 (ip), vehicle: alkali diluted with saline",2 % of control
same,T/C,"dose: 1.25 mg/kg/injection, schedule: Q01DX011 (ip), vehicle: saline",4 % of control
same,T/C,"dose: 1.25 mg/kg/injection, schedule: Q01DX011 (oral), vehicle: saline",36 % of control
same,T/C,"dose: 1.56 mg/kg/injection, schedule: Q01DX011 (ip), vehicle: methylcellulose (MC)",5 % of control
same,T/C,"dose: 2.08 mg/kg/injection, schedule: Q01DX011 (ip), vehicle: distilled water + alcohol",6 % of control
same,T/C,"dose: 2.5 mg/kg/injection, schedule: Q01DX011 (ip), vehicle: alkali diluted with saline",1 % of control
same,T/C,"dose: 2.5 mg/kg/injection, schedule: Q01DX011 (ip), vehicle: methylcellulose (MC)",4 % of control
same,T/C,"dose: 2.5 mg/kg/injection, schedule: Q01DX011 (ip), vehicle: saline",3 % of control
same,T/C,"dose: 2.5 mg/kg/injection, schedule: Q01DX011 (oral), vehicle: saline",8 % of control
same,T/C,"dose: 3.12 mg/kg/injection, schedule: Q01DX011 (ip), vehicle: methylcellulose (MC)",2 % of control
same,T/C,"dose: 4.19 mg/kg/injection, schedule: Q01DX011 (ip), vehicle: distilled water + alcohol",2 % of control
same,T/C,"dose: 5.0 mg/kg/injection, schedule: Q01DX011 (ip), vehicle: saline",1 % of control
same,T/C,"dose: 5.0 mg/kg/injection, schedule: Q01DX011 (oral), vehicle: saline",5 % of control
same,T/C,[1],2 % of control
same,T/C,"dose: 10.0 mg/kg/injection, schedule: Q01DX011 (ip), vehicle: saline",1 % of control
same,T/C,"dose: 12.5 mg/kg/injection, schedule: Q01DX011 (ip), vehicle: methylcellulose (MC)",1 % of control
Nc1nc(SCc2ccccc2)c2ncn(C3CCCC3)c2n1,T/C,"dose: 4.6 mg/kg/injection, schedule: Q01DX011 (ip), vehicle: carboxymethylcellulose (CMC)",79 % of control
same,T/C,"dose: 9.3 mg/kg/injection, schedule: Q01DX011 (ip), vehicle: carboxymethylcellulose (CMC)",70 % of control
same,T/C,"dose: 18.7 mg/kg/injection, schedule: Q01DX011 (ip), vehicle: carboxymethylcellulose (CMC)",69 % of control
same,T/C,"dose: 37.5 mg/kg/injection, schedule: Q01DX011 (ip), vehicle: carboxymethylcellulose (CMC)",24 % of control
same,T/C,"dose: 75.0 mg/kg/injection, schedule: Q01DX011 (ip), vehicle: carboxymethylcellulose (CMC)",11 % of control
same,T/C,"dose: 150.0 mg/kg/injection, schedule: Q01DX011 (ip), vehicle: carboxymethylcellulose (CMC)",2 % of control
same,T/C,"dose: 300.0 mg/kg/injection, schedule: Q01DX011 (ip), vehicle: carboxymethylcellulose (CMC)",1 % of control
same,T/C,"dose: 375.0 mg/kg/injection, schedule: Q01DX011 (ip), vehicle: carboxymethylcellulose (CMC)",33 % of control
C[C@@H]1C[C@H]2CC[C@H](O2)[C@H](C)C(=O)O[C@@H](C)C[C@@H]2CC[C@@H](O2)[C@@H](C)C(=O)O[C@H](C)C[C@H]2CC[C@H](O2)[C@H](C)C(=O)O[C@@H](C)C[C@@H]2CC[C@@H](O2)[C@@H](C)C(=O)O1,T/C,"dose: 2.5 mg/kg/injection, schedule: Q01DX011 (ip), vehicle: olive oil, sesame oil, peanut oil",116 % of control
same,T/C,"dose: 5.0 mg/kg/injection, schedule: Q01DX011 (ip), vehicle: olive oil, sesame oil, peanut oil",85 % of control
same,T/C,"dose: 10.0 mg/kg/injection, schedule: Q01DX011 (ip), vehicle: olive oil, sesame oil, peanut oil",96 % of control
same,T/C,"dose: 10.0 mg/kg/injection, schedule: Q01DX011 (sc), vehicle: olive oil, sesame oil, peanut oil",118 % of control
same,T/C,"dose: 18.0 mg/kg/injection, schedule: Q01DX011 (ip), vehicle: carboxymethylcellulose (CMC)",116 % of control
same,T/C,"dose: 19.0 mg/kg/injection, schedule: Q01DX011 (ip), vehicle: methylcellulose (MC)",89 % of control
same,T/C,"dose: 19.0 mg/kg/injection, schedule: Q01DX011 (sc), vehicle: methylcellulose (MC)",246 % of control
same,T/C,"dose: 20.0 mg/kg/injection, schedule: Q01DX011 (ip), vehicle: olive oil, sesame oil, peanut oil",48 % of control
same,T/C,"dose: 20.0 mg/kg/injection, schedule: Q01DX011 (sc), vehicle: olive oil, sesame oil, peanut oil",73 % of control
same,T/C,"dose: 30.0 mg/kg/injection, schedule: Q01DX011 (sc), vehicle: olive oil, sesame oil, peanut oil",87 % of control
same,T/C,"dose: 36.0 mg/kg/injection, schedule: Q01DX011 (ip), vehicle: carboxymethylcellulose (CMC)",98 % of control
same,T/C,"dose: 37.5 mg/kg/injection, schedule: Q01DX011 (sc), vehicle: methylcellulose (MC)",159 % of control
same,T/C,"dose: 40.0 mg/kg/injection, schedule: Q01DX011 (ip), vehicle: carboxymethylcellulose (CMC)",87 % of control
same,T/C,"dose: 50.0 mg/kg/injection, schedule: Q01DX011 (ip), vehicle: carboxymethylcellulose (CMC)",92 % of control
same,T/C,[2],89 % of control
same,T/C,"dose: 60.0 mg/kg/injection, schedule: Q01DX011 (sc), vehicle: olive oil, sesame oil, peanut oil",57 % of control
same,T/C,[3],91 % of control
same,T/C,"dose: 150.0 mg/kg/injection, schedule: Q01DX011 (sc), vehicle: methylcellulose (MC)",211 % of control
Clc1ccccc1CSc1ncnc2nc[nH]c12,T/C,"dose: 5.0 mg/kg/injection, schedule: Q01DX011 (ip), vehicle: other",11 % of control
same,T/C,"dose: 10.0 mg/kg/injection, schedule: Q01DX011 (ip), vehicle: other",2 % of control
same,T/C,"dose: 31.0 mg/kg/injection, schedule: Q01DX011 (ip), vehicle: other",12 % of control
same,T/C,"dose: 62.0 mg/kg/injection, schedule: Q01DX011 (ip), vehicle: other",3 % of control
same,T/C,"dose: 125.0 mg/kg/injection, schedule: Q01DX011 (ip), vehicle: other",3 % of control
Cn1c(=O)c2c(nc(C(O)(c3ccccc3)c3ccccc3)n2C)n(C)c1=O,T/C,"dose: 40.0 mg/kg/injection, schedule: Q01DX011 (ip), vehicle: methylcellulose (MC)",122 % of control
same,T/C,[3],66 % of control
Cc1cc(C)c(/C=N/Nc2nc3c(c(=O)n(C)c(=O)n3C)n2C)c(C)c1,T/C,"dose: 30.0 mg/kg/injection, schedule: Q01DX011 (ip), vehicle: carboxymethylcellulose (CMC)",68 % of control
same,T/C,[2],106 % of control
CCCn1cnc2c(SC(C)C)nc(N)nc21,T/C,"dose: 3.1 mg/kg/injection, schedule: Q01DX011 (ip), vehicle: methylcellulose (MC)",16 % of control
same,T/C,[1],2 % of control
